Measured values reported in article PMC7385619, “A triple action CDK4/6-PI3K-BET inhibitor with augmented cancer cell cytotoxicity” (Cell Discovery, 2020).
Where two headings read alike, the source gives them in different places.

Tests used:
Assay in all cases: KINOMEscan assay (Eurofins DiscoverX)
Type in all cases: binding
[1] = molecular target: T1, kinome (kinase panel) (Homo sapiens, UniProt O43318); details: TAK1 (MAP3K7); 1000 nM; read-out: Percent Control
T1 construct: purchased Eurofins DiscoverX

[2] = molecular target: T2, kinome (kinase panel) (Homo sapiens, UniProt O43353); details: RIPK2; 1000 nM; read-out: Percent Control
T2 construct: purchased Eurofins DiscoverX

[3] = molecular target: T3, kinome (kinase panel) (Homo sapiens, UniProt O60674); details: JAK2(JH1domain-catalytic); 1000 nM; read-out: Percent Control
T3 construct: purchased Eurofins DiscoverX

[4] = molecular target: T4, kinome (kinase panel) (Homo sapiens, UniProt O75582); details: 1000 nM, read-out: Percent Control
T4 construct: purchased Eurofins DiscoverX
T4 sequence (O75582 whole entry): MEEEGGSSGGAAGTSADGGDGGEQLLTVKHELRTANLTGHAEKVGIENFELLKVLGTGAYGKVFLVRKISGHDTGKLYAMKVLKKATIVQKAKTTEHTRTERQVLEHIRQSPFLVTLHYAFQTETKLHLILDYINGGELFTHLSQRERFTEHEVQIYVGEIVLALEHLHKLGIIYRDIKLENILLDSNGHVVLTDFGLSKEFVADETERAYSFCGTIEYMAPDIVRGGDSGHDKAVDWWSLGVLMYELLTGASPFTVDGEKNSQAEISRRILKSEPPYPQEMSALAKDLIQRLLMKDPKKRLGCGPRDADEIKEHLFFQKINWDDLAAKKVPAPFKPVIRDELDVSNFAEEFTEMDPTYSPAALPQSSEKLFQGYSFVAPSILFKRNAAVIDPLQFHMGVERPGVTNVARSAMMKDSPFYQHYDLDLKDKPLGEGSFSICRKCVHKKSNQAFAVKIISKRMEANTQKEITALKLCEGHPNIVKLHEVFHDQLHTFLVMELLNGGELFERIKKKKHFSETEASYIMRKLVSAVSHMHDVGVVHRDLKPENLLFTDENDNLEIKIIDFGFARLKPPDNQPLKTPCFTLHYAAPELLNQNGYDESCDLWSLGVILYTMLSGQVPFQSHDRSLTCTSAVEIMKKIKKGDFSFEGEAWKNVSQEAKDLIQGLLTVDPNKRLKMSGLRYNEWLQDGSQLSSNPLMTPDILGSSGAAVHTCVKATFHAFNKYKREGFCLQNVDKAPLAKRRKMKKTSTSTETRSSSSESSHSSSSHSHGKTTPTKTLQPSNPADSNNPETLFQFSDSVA

[5] = molecular target: T5, kinome (kinase panel) (Homo sapiens, UniProt O96013); details: PAK4; 1000 nM; read-out: Percent Control
T5 construct: purchased Eurofins DiscoverX

[6] = molecular target: T6, kinome (kinase panel) (Homo sapiens, UniProt P00519, M351T); details: read-out: Percent Control
T6 construct: purchased Eurofins DiscoverX

[7] = molecular target: T7, kinome (kinase panel) (Homo sapiens, UniProt P09769); details: FGR; 1000 nM; read-out: Percent Control
T7 construct: purchased Eurofins DiscoverX

[8] = molecular target: T8, kinome (kinase panel) (Homo sapiens, UniProt P0C264); details: SgK110; 1000 nM; read-out: Percent Control
T8 construct: purchased Eurofins DiscoverX

[9] = molecular target: T9, kinome (kinase panel) (Homo sapiens, UniProt P10721, V559D); details: […]; 1000 nM; read-out: Percent Control
T9 construct: purchased Eurofins DiscoverX

[10] = molecular target: T10, kinome (kinase panel) (Homo sapiens, UniProt P17948); details: FLT1; 1000 nM; read-out: Percent Control
T10 construct: purchased Eurofins DiscoverX
T10 sequence (P17948 27-1338): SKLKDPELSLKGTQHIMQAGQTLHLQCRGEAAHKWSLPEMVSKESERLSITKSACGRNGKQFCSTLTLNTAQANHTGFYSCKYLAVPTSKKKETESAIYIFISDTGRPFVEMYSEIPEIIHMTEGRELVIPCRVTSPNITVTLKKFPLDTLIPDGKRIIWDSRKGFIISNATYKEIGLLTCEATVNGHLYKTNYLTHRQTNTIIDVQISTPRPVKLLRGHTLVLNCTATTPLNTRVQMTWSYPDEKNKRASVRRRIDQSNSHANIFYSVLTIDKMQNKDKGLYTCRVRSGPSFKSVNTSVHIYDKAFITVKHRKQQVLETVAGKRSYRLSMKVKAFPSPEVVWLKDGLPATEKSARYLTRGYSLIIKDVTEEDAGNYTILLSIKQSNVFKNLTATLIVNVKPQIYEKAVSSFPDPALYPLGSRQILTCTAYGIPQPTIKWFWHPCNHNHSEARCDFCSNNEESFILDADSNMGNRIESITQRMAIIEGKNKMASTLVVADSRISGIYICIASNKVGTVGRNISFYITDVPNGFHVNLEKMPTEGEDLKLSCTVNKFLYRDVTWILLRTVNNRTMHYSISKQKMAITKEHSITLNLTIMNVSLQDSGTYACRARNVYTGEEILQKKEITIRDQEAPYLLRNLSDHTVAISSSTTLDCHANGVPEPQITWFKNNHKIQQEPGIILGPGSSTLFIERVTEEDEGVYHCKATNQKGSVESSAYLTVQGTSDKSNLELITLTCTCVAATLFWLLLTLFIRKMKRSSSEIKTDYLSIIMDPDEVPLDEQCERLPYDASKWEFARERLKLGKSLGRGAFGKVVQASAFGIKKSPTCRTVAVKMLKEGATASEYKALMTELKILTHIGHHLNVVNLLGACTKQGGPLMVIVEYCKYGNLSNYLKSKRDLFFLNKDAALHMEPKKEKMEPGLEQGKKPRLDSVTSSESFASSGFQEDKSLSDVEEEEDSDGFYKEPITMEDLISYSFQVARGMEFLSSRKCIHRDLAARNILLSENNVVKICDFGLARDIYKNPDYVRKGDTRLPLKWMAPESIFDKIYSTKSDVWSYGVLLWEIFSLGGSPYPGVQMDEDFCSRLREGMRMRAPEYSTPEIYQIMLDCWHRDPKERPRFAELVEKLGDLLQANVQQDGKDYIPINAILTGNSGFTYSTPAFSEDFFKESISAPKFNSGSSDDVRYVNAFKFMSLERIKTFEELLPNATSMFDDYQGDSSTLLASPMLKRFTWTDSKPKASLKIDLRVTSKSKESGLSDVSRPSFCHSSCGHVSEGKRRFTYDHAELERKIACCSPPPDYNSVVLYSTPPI

[11] = molecular target: T11, kinome (kinase panel) (Homo sapiens, UniProt P21709); details: EPHA1; 1000 nM; read-out: Percent Control
T11 construct: purchased Eurofins DiscoverX

[12] = molecular target: T12, kinome (kinase panel) (Homo sapiens, UniProt P25098); details: GRK2 (Entrez ADRBK1); 1000 nM; read-out: Percent Control
T12 construct: purchased Eurofins DiscoverX

[13] = molecular target: T13, kinome (kinase panel) (Homo sapiens, UniProt P29597); details: 1000 nM, read-out: Percent Control
T13 construct: purchased Eurofins DiscoverX
T13 sequence (P29597 whole entry): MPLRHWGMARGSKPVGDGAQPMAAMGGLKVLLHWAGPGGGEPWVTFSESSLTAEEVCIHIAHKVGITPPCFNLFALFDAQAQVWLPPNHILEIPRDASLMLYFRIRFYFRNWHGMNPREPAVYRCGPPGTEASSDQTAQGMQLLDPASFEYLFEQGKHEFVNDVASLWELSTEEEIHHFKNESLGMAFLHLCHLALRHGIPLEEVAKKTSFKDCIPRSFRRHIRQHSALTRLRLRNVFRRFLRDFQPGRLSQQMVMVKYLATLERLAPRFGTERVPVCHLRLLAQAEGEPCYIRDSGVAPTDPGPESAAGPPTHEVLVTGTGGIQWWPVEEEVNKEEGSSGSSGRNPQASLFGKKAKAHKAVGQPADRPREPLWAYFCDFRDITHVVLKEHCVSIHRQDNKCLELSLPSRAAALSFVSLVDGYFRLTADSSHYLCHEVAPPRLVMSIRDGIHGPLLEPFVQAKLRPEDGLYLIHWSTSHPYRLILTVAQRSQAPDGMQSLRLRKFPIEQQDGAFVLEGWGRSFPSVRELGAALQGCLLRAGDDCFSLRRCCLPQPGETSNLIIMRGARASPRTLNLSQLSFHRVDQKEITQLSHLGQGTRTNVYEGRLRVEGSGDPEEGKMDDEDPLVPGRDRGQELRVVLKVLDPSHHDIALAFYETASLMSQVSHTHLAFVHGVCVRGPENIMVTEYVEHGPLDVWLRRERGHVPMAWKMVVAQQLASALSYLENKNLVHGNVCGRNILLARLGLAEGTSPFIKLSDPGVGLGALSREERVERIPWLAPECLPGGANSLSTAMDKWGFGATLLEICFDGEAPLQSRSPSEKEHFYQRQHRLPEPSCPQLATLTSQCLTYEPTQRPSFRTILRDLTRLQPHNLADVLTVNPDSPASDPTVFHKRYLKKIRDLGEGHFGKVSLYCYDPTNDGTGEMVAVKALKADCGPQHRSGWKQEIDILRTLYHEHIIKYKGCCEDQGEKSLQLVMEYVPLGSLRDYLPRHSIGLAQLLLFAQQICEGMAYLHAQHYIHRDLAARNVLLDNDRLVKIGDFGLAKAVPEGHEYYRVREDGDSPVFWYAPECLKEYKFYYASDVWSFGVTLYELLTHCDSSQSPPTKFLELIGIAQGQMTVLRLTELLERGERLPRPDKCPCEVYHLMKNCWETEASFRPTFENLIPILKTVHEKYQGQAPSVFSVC

[14] = molecular target: T14, kinome (kinase panel) (Homo sapiens, UniProt P42336, H1047L); details: read-out: Percent Control
T14 construct: purchased Eurofins DiscoverX

[15] = molecular target: T15, kinome (kinase panel) (Homo sapiens, UniProt P42336, Q546K); details: read-out: Percent Control
T15 construct: purchased Eurofins DiscoverX

[16] = molecular target: T16, kinome (kinase panel) (Homo sapiens, UniProt P42680); details: TEC; 1000 nM; read-out: Percent Control
T16 construct: purchased Eurofins DiscoverX

[17] = molecular target: T17, kinome (kinase panel) (Homo sapiens, UniProt P51956); details: NEK3; 1000 nM; read-out: Percent Control
T17 construct: purchased Eurofins DiscoverX
T17 sequence (P51956 whole entry): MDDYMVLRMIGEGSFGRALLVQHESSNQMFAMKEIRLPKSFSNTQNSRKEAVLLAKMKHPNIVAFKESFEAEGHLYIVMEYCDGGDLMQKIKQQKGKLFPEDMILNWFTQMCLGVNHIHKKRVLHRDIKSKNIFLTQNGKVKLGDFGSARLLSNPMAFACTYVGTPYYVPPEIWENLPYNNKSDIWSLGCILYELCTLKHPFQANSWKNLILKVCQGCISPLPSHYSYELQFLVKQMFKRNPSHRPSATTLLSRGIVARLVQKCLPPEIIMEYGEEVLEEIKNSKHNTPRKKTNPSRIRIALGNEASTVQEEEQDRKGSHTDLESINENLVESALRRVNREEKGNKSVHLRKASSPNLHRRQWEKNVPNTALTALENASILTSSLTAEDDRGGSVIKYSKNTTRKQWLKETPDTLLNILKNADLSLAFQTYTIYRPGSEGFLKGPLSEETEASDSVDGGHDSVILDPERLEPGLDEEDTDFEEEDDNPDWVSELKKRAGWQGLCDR

[18] = molecular target: T18, kinome (kinase panel) (Homo sapiens, UniProt P78362); details: SRPK2; 1000 nM; read-out: Percent Control
T18 construct: purchased Eurofins DiscoverX

[19] = molecular target: T19, kinome (kinase panel) (Homo sapiens, UniProt Q02763); details: TIE2 (TEK); 1000 nM; read-out: Percent Control
T19 construct: purchased Eurofins DiscoverX

[20] = molecular target: T20, kinome (kinase panel) (Homo sapiens, UniProt Q04771); details: ACVR1; 1000 nM; read-out: Percent Control
T20 construct: purchased Eurofins DiscoverX

[21] = molecular target: T21, kinome (kinase panel) (Homo sapiens, UniProt Q13188); details: MST2 (Entrez STK3); 1000 nM; read-out: Percent Control
T21 construct: purchased Eurofins DiscoverX

[22] = molecular target: T22, kinome (kinase panel) (Homo sapiens, UniProt Q15303); details: ERBB4; 1000 nM; read-out: Percent Control
T22 construct: purchased Eurofins DiscoverX

[23] = molecular target: T23, kinome (kinase panel) (Homo sapiens, UniProt Q15349); details: 1000 nM, read-out: Percent Control
T23 construct: purchased Eurofins DiscoverX
T23 sequence (Q15349 whole entry): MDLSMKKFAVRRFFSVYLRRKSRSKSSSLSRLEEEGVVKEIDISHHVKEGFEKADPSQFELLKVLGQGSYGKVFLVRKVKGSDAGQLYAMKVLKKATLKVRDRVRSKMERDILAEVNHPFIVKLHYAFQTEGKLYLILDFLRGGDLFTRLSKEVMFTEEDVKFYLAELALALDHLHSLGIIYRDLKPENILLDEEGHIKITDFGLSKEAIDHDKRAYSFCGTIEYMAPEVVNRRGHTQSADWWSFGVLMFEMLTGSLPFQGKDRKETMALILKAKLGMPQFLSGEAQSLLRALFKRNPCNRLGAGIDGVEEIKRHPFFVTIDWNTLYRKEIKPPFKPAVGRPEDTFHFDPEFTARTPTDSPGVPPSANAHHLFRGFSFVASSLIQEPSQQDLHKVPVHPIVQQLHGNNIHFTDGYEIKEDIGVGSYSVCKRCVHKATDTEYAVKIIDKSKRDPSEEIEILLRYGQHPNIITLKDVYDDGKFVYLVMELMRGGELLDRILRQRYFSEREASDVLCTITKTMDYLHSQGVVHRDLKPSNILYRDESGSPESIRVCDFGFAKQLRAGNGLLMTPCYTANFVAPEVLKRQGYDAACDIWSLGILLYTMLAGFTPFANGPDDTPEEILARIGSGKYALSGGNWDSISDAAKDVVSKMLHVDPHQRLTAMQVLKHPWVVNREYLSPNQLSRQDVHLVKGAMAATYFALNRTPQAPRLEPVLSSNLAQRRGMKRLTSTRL

[24] = molecular target: T24, kinome (kinase panel) (Homo sapiens, UniProt Q15375); details: EPHA7; 1000 nM; read-out: Percent Control
T24 construct: purchased Eurofins DiscoverX

[25] = molecular target: T25, kinome (kinase panel) (Homo sapiens, UniProt Q2M2I8); details: AAK1; 1000 nM; read-out: Percent Control
T25 construct: purchased Eurofins DiscoverX

[26] = molecular target: T26, kinome (kinase panel) (Homo sapiens, UniProt Q7KZI7); details: MARK2; 1000 nM; read-out: Percent Control
T26 construct: purchased Eurofins DiscoverX

[27] = molecular target: T27, kinome (kinase panel) (Homo sapiens, UniProt Q86YV6); details: MYLK4; 1000 nM; read-out: Percent Control
T27 construct: purchased Eurofins DiscoverX
T27 sequence (Q86YV6 whole entry): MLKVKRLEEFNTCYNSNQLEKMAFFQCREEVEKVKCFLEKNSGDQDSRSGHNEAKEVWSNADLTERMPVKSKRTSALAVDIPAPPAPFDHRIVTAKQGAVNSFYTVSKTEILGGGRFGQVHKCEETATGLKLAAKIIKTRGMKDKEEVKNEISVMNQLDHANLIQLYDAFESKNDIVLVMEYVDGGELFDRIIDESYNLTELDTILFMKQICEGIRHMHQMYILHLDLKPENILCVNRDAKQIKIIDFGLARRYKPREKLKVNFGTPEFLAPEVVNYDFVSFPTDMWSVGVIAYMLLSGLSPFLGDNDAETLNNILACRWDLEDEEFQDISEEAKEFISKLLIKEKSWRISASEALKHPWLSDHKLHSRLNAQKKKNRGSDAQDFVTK

[28] = molecular target: T28, kinome (kinase panel) (Homo sapiens, UniProt Q8WXR4); details: MYO3B; 1000 nM; read-out: Percent Control
T28 construct: purchased Eurofins DiscoverX

[29] = molecular target: T29, kinome (kinase panel) (Homo sapiens, UniProt Q96PY6); details: NEK1; 1000 nM; read-out: Percent Control
T29 construct: purchased Eurofins DiscoverX

[30] = molecular target: T30, kinome (kinase panel) (Homo sapiens, UniProt Q9NSY1); details: BIKE (Entrez BMP2K); 1000 nM; read-out: Percent Control
T30 construct: purchased Eurofins DiscoverX

[31] = molecular target: T31, kinome (kinase panel) (Homo sapiens, UniProt Q9UBF8); details: PIK4CB (Entrez PI4KB); 1000 nM; read-out: Percent Control
T31 construct: purchased Eurofins DiscoverX

[32] = molecular target: T32, kinome (kinase panel) (Homo sapiens, UniProt Q9UKI8); details: TLK1; 1000 nM; read-out: Percent Control
T32 construct: purchased Eurofins DiscoverX

CN(C)C(=O)c1cc2cnc(Nc3ccc(-c4csc5c(=O)cc(N6CCOCC6)oc45)cc3)nc2n1C1CCCC1 [SRX3177]
remaining binding at 1 µM [1]: 94%
remaining binding at 1 µM [2]: 93%
remaining binding at 1 µM [3]: 34%
remaining binding at 1 µM ([4]; RPS6KA5(Kin.Dom.1-N-terminal)): 100%
remaining binding at 1 µM ([4]; RPS6KA5(Kin.Dom.2-C-terminal)): 100%
remaining binding at 1 µM [5]: 84%
remaining binding at 1 µM [6]: 49%
remaining binding at 1 µM [7]: 97%
remaining binding at 1 µM [8]: 38%
remaining binding at 1 µM [9]: 49%
remaining binding at 1 µM [10]: 91%
remaining binding at 1 µM [11]: 79%
remaining binding at 1 µM [12]: 73%
remaining binding at 1 µM ([13]; TYK2(JH1domain-catalytic)): 69%
remaining binding at 1 µM ([13]; TYK2(JH2domain-pseudokinase)): 9.7%
remaining binding at 1 µM [14]: 41%
remaining binding at 1 µM [15]: 41%
remaining binding at 1 µM [16]: 95%
remaining binding at 1 µM [17]: 90%
remaining binding at 1 µM [18]: 89%
remaining binding at 1 µM [19]: 100%
remaining binding at 1 µM [20]: 84%
remaining binding at 1 µM [21]: 61%
remaining binding at 1 µM [22]: 100%
remaining binding at 1 µM ([23]; RSK3(Kin.Dom.1-N-terminal) (RPS6KA2)): 80%
remaining binding at 1 µM ([23]; RSK3(Kin.Dom.2-C-terminal) (RPS6KA2)): 74%
remaining binding at 1 µM [24]: 100%
remaining binding at 1 µM [25]: 49%
remaining binding at 1 µM [26]: 96%
remaining binding at 1 µM [27]: 100%
remaining binding at 1 µM [28]: 100%
remaining binding at 1 µM [29]: 100%
remaining binding at 1 µM [30]: 10%
remaining binding at 1 µM [31]: 19%
remaining binding at 1 µM [32]: 94%
